Measurements published in ChEMBL document CHEMBL1155681, “Structure and antibacterial activity ofp6 new labdane diterpenoid from Salvia leriaefolia” (2000).

Assays:
Format in all cases: functional
Escherichia coli = assay: Antibacterial activity against Escherichia coli ATCC 25922
Staphylococcus aureus = assay: Antibacterial activity against Staphylococcus aureus ATCC 25923 at 0.4 mM; details: read-out: IZ
Pseudomonas aeruginosa = assay: Antibacterial activity against Pseudomonas aeruginosa ATCC 85327

## C=C/C(C)=C/C[C@H]1C(=C)C[C@H]2OC(=O)[C@@]3(C)CCC[C@@]1(C)[C@@H]23
Escherichia coli
  inhibition zone (IZ): 13 mm
Staphylococcus aureus
  zone of inhibition at 400 µM: 20 mm
Pseudomonas aeruginosa
  inhibition zone (IZ): 12 mm
